Biological target: T1, BTV VP1 (his-tagged VP1) (Bluetongue virus (serotype 10 / American isolate), UniProt P13840)
T1 construct: gene Segment-1; tag cleavage not mentioned
Assay: in vitro polymerase assay, [α-32P]CTP incorporation into dsRNA, native PAGE
Assay type: biochemical
Conditions: 20 pmol in 50 µl, uncapped T7 S9 ssRNA template, Mg2+, Mn2+, pH 7.4, 37 °C, 5 h

T1 sequence (P13840 whole entry): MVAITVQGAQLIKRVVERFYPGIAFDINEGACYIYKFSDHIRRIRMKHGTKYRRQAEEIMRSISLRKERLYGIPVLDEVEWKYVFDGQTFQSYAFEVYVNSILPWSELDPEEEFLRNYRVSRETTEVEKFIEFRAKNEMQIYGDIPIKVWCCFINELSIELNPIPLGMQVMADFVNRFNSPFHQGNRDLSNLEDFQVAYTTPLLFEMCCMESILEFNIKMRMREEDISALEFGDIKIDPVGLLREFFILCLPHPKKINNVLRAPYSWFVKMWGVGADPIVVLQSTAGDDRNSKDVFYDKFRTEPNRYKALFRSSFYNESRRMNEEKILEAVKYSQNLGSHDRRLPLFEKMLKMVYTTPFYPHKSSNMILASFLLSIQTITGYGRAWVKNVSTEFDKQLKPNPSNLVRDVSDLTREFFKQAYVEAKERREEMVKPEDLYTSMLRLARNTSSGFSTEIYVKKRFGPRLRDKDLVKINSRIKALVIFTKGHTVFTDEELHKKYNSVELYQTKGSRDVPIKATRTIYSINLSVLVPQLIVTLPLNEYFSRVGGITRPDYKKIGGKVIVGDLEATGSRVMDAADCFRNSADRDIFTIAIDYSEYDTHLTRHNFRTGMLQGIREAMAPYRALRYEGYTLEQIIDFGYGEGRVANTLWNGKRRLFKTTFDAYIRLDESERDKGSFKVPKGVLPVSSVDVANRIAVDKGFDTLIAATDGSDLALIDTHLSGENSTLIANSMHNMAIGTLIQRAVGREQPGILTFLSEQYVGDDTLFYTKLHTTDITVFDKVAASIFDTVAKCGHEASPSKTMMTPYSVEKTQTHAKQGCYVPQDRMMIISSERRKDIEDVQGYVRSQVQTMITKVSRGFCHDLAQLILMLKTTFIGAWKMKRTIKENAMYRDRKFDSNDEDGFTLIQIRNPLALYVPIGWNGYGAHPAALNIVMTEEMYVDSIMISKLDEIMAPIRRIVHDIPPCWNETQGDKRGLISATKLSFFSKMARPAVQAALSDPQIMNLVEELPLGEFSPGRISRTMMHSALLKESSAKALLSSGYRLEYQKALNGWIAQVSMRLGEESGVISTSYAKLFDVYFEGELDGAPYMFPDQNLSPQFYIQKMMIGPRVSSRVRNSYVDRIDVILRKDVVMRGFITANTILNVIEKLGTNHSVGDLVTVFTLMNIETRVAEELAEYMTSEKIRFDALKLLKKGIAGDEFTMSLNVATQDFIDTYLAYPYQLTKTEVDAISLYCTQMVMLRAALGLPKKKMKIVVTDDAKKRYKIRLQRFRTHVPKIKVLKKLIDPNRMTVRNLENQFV

Row | Compound | fold of control (activator, allosteric proposed) | also measured
1 | C[n+]1cn([C@@H]2O[C@H](COP(=O)(O)OP(=O)(O)OP(=O)(O)OC[C@H]3O[C@@H](n4cnc5c(=O)[nH]c(N)nc54)[C@H](O)[C@@H]3O)[C@@H](O)[C@H]2O)c2nc(N)[nH]c(=O)c21 [m7GpppG] | dsRNA synthesis from both capped and uncapped T7 S9 ssRNA was enhanced | –
2 | CO[C@H]1[C@@H](O)[C@H](n2c[n+](C)c3c(=O)[nH]c(N)nc32)O[C@@H]1COP(=O)(O)OP(=O)(O)OP(=O)(O)OC[C@H]1O[C@@H](n2cnc3c(=O)[nH]c(N)nc32)[C@H](O)[C@@H]1O [ARCA, 3′-O-methyl-m7GpppG] | dsRNA synthesis from both capped and uncapped T7 S9 ssRNA was enhanced | –
3 | Nc1nc2c(ncn2[C@@H]2O[C@H](COP(=O)(O)OP(=O)(O)OP(=O)(O)OC[C@H]3O[C@@H](n4cnc5c(N)ncnc54)[C@H](O)[C@@H]3O)[C@@H](O)[C@H]2O)c(=O)[nH]1 [GpppA] | dsRNA synthesis from both capped and uncapped T7 S9 ssRNA was enhanced | –
4 | Nc1nc2c(ncn2[C@@H]2O[C@H](COP(=O)(O)OP(=O)(O)OP(=O)(O)OC[C@H]3O[C@@H](n4cnc5c(=O)[nH]c(N)nc54)[C@H](O)[C@@H]3O)[C@@H](O)[C@H]2O)c(=O)[nH]1 [GpppG] | enhanced by the addition of all cap analogues, with GpppG showing the greatest enhancement | –
5 | Nc1nc2c(ncn2[C@@H]2O[C@H](COP(=O)(O)O[C@H]3[C@@H](O)[C@H](n4cnc5c(N)ncnc54)O[C@@H]3CO)[C@@H](O)[C@H]2O)c(=O)[nH]1 [ApG] | – | fold of control (priming dinucleotide): GpG and ApG, which complement only the last nucleotide
6 | Nc1nc2c(ncn2[C@@H]2O[C@H](COP(=O)(O)O[C@H]3[C@@H](O)[C@H](n4cnc5c(=O)[nH]c(N)nc54)O[C@@H]3CO)[C@@H](O)[C@H]2O)c(=O)[nH]1 [GpG] | – | fold of control (priming dinucleotide, additional allosteric effect proposed): GpG and ApG, which complement only the last nucleotide

— paper PMC3216989, “Bluetongue Virus VP1 Polymerase Activity In Vitro: Template Dependency, Dinucleotide Priming and Cap Dependency” (PLoS ONE, 2011)
